The subject of experiment [1] is de novo hepatic cholesterol synthesis. In words: Acute rat cholesterol synthesis assay (de novo hepatic cholesterol synthesis from 14C-acetate). It is filed as in vivo. The settings on record: female rats, oral gavage, ip or iv dosing, [2-14C]-acetate ip after 1 hour. As to the method: (b) Ache rat cholesterol synthesis assay.
This is an acute in vivo test in the rat to measure de novo hepatic cholesterol synthesis from exogenously administered ^14 C-acetate.
Female rats (35-55 g) are housed in reverse lighting conditions (red light from 0200h-1400h) for a period of about 2 weeks prior to test. Animals are allowed free access to chow and drinking water throughout this period. At test, animals should weigh 125-150 g.
Test compounds may be administered by oral gavage, dissolved or suspended in 0.5% polysorbate, or by ip or iv dosing. Control animals receive vehicle alone. After 1 hour the rats are injected ip with 25 μCi [2-^14 C]-acetate (NEN DUPONT. specific activity, 45-60 mCi/mmol NEC-085H, or AMERSHAM specific activity, 50-60mCi/mmol CFA 14) in a volume of 0.25 ml saline (100 μCi/ml). After a further hour, rats are terminally anaesthetised with halothane and a blood sample obtained from the abdominal vena cava.
1 ml of plasma is lyophilised and then saponified in 2 ml ethanolic KOH (1 part 33% KOH, 9 parts ethanol) at 75° C. for 2 hours. After addition of an equal quantity of water, non-saponifiable lipids are extracted with two 5 ml volumes of hexane. The hexane extracts are evaporated to dryness and the residues dissolved in ethanol to determine cholesterol specific radioactivity. ED50 values can be determined in the standard way.

The target in another experiment is T1, Squalene synthase (Rattus norvegicus, UniProt Q02769).
T1 construct: rat liver microsomal protein; from tissue; host or cells: rat liver microsomes
T1 sequence (Q02769 1-416): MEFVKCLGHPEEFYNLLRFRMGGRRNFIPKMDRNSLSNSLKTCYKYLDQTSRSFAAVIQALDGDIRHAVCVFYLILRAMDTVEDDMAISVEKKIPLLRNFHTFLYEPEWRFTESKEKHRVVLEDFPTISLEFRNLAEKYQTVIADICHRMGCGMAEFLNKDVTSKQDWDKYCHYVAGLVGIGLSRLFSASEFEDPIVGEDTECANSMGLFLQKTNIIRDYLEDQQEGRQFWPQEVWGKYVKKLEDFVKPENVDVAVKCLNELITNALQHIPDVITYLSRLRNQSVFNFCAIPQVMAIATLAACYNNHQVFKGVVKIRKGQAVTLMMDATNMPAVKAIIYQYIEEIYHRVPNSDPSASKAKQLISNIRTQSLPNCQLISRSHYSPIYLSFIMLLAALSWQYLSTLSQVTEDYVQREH
In words: Inhibition of Squalene synthase (formation of squalene from tritiated farnesyl pyrophosphate, rat liver microsomal protein). It is filed as biochemical. The note with it: at a concentration of 2.5 μM; rat liver microsomes. As to the method: (a) Inhibition of Squalene synthase
In this test, the ability of a compound to prevent the formation of squalene from a radioactive substrate (tritiated farnesyl pyrophosphate) is assessed.
The test compound is incubated at a concentration of […] in 200 μl of a buffered solution containing potassium phosphate (50 mM), MgCl2 (4.95 mM), KF (9.9 mM), NADPH (0.9 mM) and rat liver microsomal protein (20 μg). Rat liver microsomes are prepared by the method described in published European Patent Application No. 324,421 and stored in liquid nitrogen prior to assay. Assay vials are kept at 37° C. throughout the incubation.
The reaction is started with the addition of the substrate (1-[^3 H]-farnesyl pyrophosphate), final concentration 20 μM, and stopped after 15 minutes reaction time with the addition of 50 μl of 4% KOH. The reaction products are separated from unreacted substrate after application to a C-18 octadecyl 1 ccBond column (Analytichem Int product No. 617101). An aqueous fraction is eluted with 250 μl of 0.1M KOH. Squalene is then eluted with 1.0 ml 10% ethylacetate in hexane and radioactivity determined. The difference in radioactivity in the presence and absence of the test compound is used to determine the level of inhibition. […] The IC50 can then be determined from a plot of percentage inhibition against concentration of test compound.
A general note: Liver microsomes are vesicles of endoplasmic reticulum, rich in cytochrome P450 enzymes.

The results in this text go back to US5554613A, “Heterocyclic derivatives” (Zeneca Limited, priority 1992, dated 1996).

Consider `OC1(c2ccc(-c3ccccn3)cc2)CN2CCC1CC2` (stereo not drawn) [Example 2, 3-[4-(pyrid-2-yl)phenyl]quinuclidin-3-ol], for which it took a dose of 14 mg/kg to reach the 50% effect level in experiment [1] (ED50).

As to `OC1(c2ccc(-c3cncnc3)cc2)CN2CCC1CC2` (stereo not drawn) [Example 4, 3-[4-(pyrimidin-5-yl)phenyl]quinuclidin-3-ol], the inhibition (as a rule, the change of the read-out against control, counted positive when it falls) at 2.5 µM at Squalene synthase is approximately 54%. For the same compound, the 50% effective dose (ED50) (as a rule, the dose at which the effect has come halfway, by size or by number of responders) in experiment [1] amounted to 4.5 mg/kg.
